Experiments:
[1] = test system: Human immunodeficiency virus 1; assay: Antiviral activity against X4 tropic HIV1 NL4-3 in MT4 cells assessed as protection from virus-induced cytopathogenicity after 5 days by MTT assay; format: functional, organism-based; settings: Human immunodeficiency virus 1, NL4-3, MT4, 120 h
[2] = test system: Human immunodeficiency virus 1; assay: Antiviral activity against R5 tropic HIV1 NL(AD8) in PM1/CCR5 cells assessed as protection from virus-induced cytopathogenicity after 5 days by MTT assay; format: functional, organism-based; settings: Human immunodeficiency virus 1, NL(AD8), PM1/CCR5, 120 h
[3] = test system: Human immunodeficiency virus 1; assay: Antiviral activity against R5 tropic HIV1 JR-CSF in PM1/CCR5 cells assessed as protection from virus-induced cytopathogenicity measuring capsid p24 level after 5 days by ELISA; format: functional, cell-based; settings: Human immunodeficiency virus 1, JRCSF ISOLATE, PM1/CCR5, 120 h
[4] = Cytotoxicity against human MT4 cells after 5 days by MTT assay; format: cell-based
[5] = test system: Human immunodeficiency virus 1; assay: Antiviral activity against R5 tropic HIV1 NL(AD8) in PM1/CCR5 cells assessed as protection from virus-induced cytopathogenicity at 50 uM after 5 days by MTT assay; format: functional; settings: Human immunodeficiency virus 1, NL(AD8), PM1/CCR5, 120 h
[6] = Solubility in PBS buffer; format: physicochemical

Compound	EC50 [1] [µM]	EC50 [2] [µM]	EC50 [3] [µM]	CC50 at 120 h [4] [µM]	inhibition at 50 µM [5] [%]	solubility [6]
CC(=O)N[C@@H](CC(=O)O)C(=O)N[C@H](C(=O)NCC(=O)N[C@@H](CC(N)=O)C(=O)N[C@@H](CC(N)=O)C(=O)N[C@@H](CO)C(=O)N[C@@H](CCC(N)=O)C(=O)N[C@H](C(=O)N[C@@H](CO)C(=O)N[C@@H](CCC(N)=O)C(=O)N[C@@H](CC(N)=O)C(=O)N[C@@H](Cc1ccc(O)cc1)C(=O)NCC(=O)N[C@@H](CSCC(=O)N[C@@H](CCCNC(=N)N)C(=O)N[C@@H](CCCNC(=N)N)C(=O)N[C@@H](CCCNC(=N)N)C(=O)N[C@@H](CCCNC(=N)N)C(=O)N[C@@H](CCCNC(=N)N)C(=O)N[C@@H](CCCNC(=N)N)C(=O)N[C@@H](CCCNC(=N)N)C(=O)N[C@@H](CCCNC(=N)N)C(N)=O)C(N)=O)C(C)C)[C@@H](C)O	20	0.43	11	> 50	–	–
CC(=O)N[C@@H](CC(C)C)C(=O)N[C@@H](CCC(=O)O)C(=O)N[C@@H](CCCNC(=N)N)C(=O)N[C@@H](Cc1ccccc1)C(=O)N[C@@H](C)C(=O)N[C@H](C(=O)N[C@@H](CC(N)=O)C(=O)N1CCC[C@H]1C(=O)NCC(=O)N[C@@H](CC(C)C)C(=O)N[C@@H](CC(C)C)C(=O)N[C@@H](CCC(=O)O)C(=O)N[C@H](C(=O)N[C@@H](CO)C(=O)N[C@@H](CCC(=O)O)C(=O)NCC(=O)N[C@@H](CSCC(=O)N[C@@H](CCCNC(=N)N)C(=O)N[C@@H](CCCNC(=N)N)C(=O)N[C@@H](CCCNC(=N)N)C(=O)N[C@@H](CCCNC(=N)N)C(=O)N[C@@H](CCCNC(=N)N)C(=O)N[C@@H](CCCNC(=N)N)C(=O)N[C@@H](CCCNC(=N)N)C(=O)N[C@@H](CCCNC(=N)N)C(N)=O)C(N)=O)[C@@H](C)O)C(C)C	40	–	42	> 50	42	–
CC[C@H](C)[C@H](NC(=O)[C@H](CCCNC(=N)N)NC(=O)[C@H](CCC(N)=O)NC(=O)[C@H](Cc1cnc[nH]1)NC(=O)[C@@H](NC(=O)[C@H](CO)NC(=O)[C@H](Cc1ccc(O)cc1)NC(=O)[C@H](CC(C)C)NC(=O)[C@@H](NC(=O)[C@H](C)NC(=O)[C@@H](NC(=O)[C@@H](NC(C)=O)[C@@H](C)O)[C@@H](C)CC)C(C)C)C(C)C)C(=O)N[C@@H](CC(=O)O)C(=O)N[C@H](C(=O)N[C@@H](CCCCN)C(=O)NCC(=O)N[C@@H](CSCC(=O)N[C@@H](CCCNC(=N)N)C(=O)N[C@@H](CCCNC(=N)N)C(=O)N[C@@H](CCCNC(=N)N)C(=O)N[C@@H](CCCNC(=N)N)C(=O)N[C@@H](CCCNC(=N)N)C(=O)N[C@@H](CCCNC(=N)N)C(=O)N[C@@H](CCCNC(=N)N)C(=O)N[C@@H](CCCNC(=N)N)C(N)=O)C(N)=O)C(C)C	2.1	0.43	0.58	5.7	–	soluble
CSCC[C@H](N)C(=O)NCC(=O)N[C@@H](C)C(=O)N[C@@H](CCCNC(=N)N)C(=O)N[C@@H](C)C(=O)N[C@@H](CO)C(=O)N[C@H](C(=O)N[C@@H](CC(C)C)C(=O)N[C@@H](CO)C(=O)NCC(=O)NCC(=O)N[C@@H](CCC(=O)O)C(=O)N[C@@H](CC(C)C)C(=O)N[C@@H](CC(=O)O)C(=O)N[C@@H](CCCCN)C(=O)NCC(=O)N[C@@H](CSCC(=O)N[C@@H](CCCNC(=N)N)C(=O)N[C@@H](CCCNC(=N)N)C(=O)N[C@@H](CCCNC(=N)N)C(=O)N[C@@H](CCCNC(=N)N)C(=O)N[C@@H](CCCNC(=N)N)C(=O)N[C@@H](CCCNC(=N)N)C(=O)N[C@@H](CCCNC(=N)N)C(=O)N[C@@H](CCCNC(=N)N)C(N)=O)C(N)=O)C(C)C	30	30	40	> 50	–	–
CC[C@H](C)[C@H](NC(=O)[C@H](CCCCN)NC(=O)[C@H](CC(=O)O)NC(=O)[C@H](CC(C)C)NC(=O)[C@H](C)NC(=O)[C@H](CCC(=O)O)NC(=O)[C@H](CCCCN)NC(=O)[C@@H](NC(=O)[C@H](CC(=O)O)NC(=O)[C@H](CCCCN)NC(=O)[C@@H](NC(=O)[C@H](CC(=O)O)NC(=O)[C@@H](NC(=O)[C@H](CCCNC(=N)N)NC(C)=O)[C@@H](C)CC)C(C)C)[C@@H](C)O)C(=O)N[C@@H](CCC(=O)O)C(=O)NCC(=O)N[C@@H](CSCC(=O)N[C@@H](CCCNC(=N)N)C(=O)N[C@@H](CCCNC(=N)N)C(=O)N[C@@H](CCCNC(=N)N)C(=O)N[C@@H](CCCNC(=N)N)C(=O)N[C@@H](CCCNC(=N)N)C(=O)N[C@@H](CCCNC(=N)N)C(=O)N[C@@H](CCCNC(=N)N)C(=O)N[C@@H](CCCNC(=N)N)C(N)=O)C(N)=O	43	–	27	> 50	42	–
Cc1cn([C@H]2C[C@H](N=[N+]=[N-])[C@@H](CO)O2)c(=O)[nH]c1=O [ZIDOVUDINE]	0.02	0.459	0.17	> 100	–	–
CC[C@H](C)[C@H](NC(=O)[C@H](CCC(N)=O)NC(=O)[C@H](CCCNC(=N)N)NC(=O)[C@H](CO)NC(=O)CNC(=O)[C@H](CCC(=O)O)NC(=O)[C@H](CO)NC(=O)[C@@H](NC(=O)[C@H](CCC(=O)O)NC(=O)[C@H](CC(C)C)NC(C)=O)[C@@H](C)O)C(=O)N[C@@H](CC(C)C)C(=O)NCC(=O)N[C@@H](CCC(N)=O)C(=O)N[C@@H](CC(C)C)C(=O)N[C@@H](CCC(N)=O)C(=O)NCC(=O)N[C@@H](CSCC(=O)N[C@@H](CCCNC(=N)N)C(=O)N[C@@H](CCCNC(=N)N)C(=O)N[C@@H](CCCNC(=N)N)C(=O)N[C@@H](CCCNC(=N)N)C(=O)N[C@@H](CCCNC(=N)N)C(=O)N[C@@H](CCCNC(=N)N)C(=O)N[C@@H](CCCNC(=N)N)C(=O)N[C@@H](CCCNC(=N)N)C(N)=O)C(N)=O	40	–	31	> 50	49	–
CC[C@H](C)[C@H](NC(=O)[C@H](CCCCN)NC(=O)[C@H](CCC(=O)O)NC(=O)[C@H](Cc1c[nH]c2ccccc12)NC(=O)[C@H](CCCCN)NC(=O)[C@H](CC(=O)O)NC(=O)[C@H](CC(C)C)NC(=O)[C@H](CCC(=O)O)NC(=O)CNC(C)=O)C(=O)N[C@@H](CCCNC(=N)N)C(=O)N[C@@H](CC(C)C)C(=O)N[C@@H](CCCNC(=N)N)C(=O)N1CCC[C@H]1C(=O)NCC(=O)NCC(=O)NCC(=O)N[C@@H](CSCC(=O)N[C@@H](CCCNC(=N)N)C(=O)N[C@@H](CCCNC(=N)N)C(=O)N[C@@H](CCCNC(=N)N)C(=O)N[C@@H](CCCNC(=N)N)C(=O)N[C@@H](CCCNC(=N)N)C(=O)N[C@@H](CCCNC(=N)N)C(=O)N[C@@H](CCCNC(=N)N)C(=O)N[C@@H](CCCNC(=N)N)C(N)=O)C(N)=O	21	> 31	–	32	–	–
CC(=O)N[C@@H](CC(=O)O)C(=O)N[C@H](C(=O)NCC(=O)N[C@@H](CC(N)=O)C(=O)N[C@@H](CC(N)=O)C(=O)N[C@@H](CO)C(=O)N[C@@H](CCC(N)=O)C(=O)N[C@H](C(=O)N[C@@H](CO)C(=O)N[C@@H](CCC(N)=O)C(=O)N[C@@H](CC(N)=O)C(=O)N[C@@H](Cc1ccc(O)cc1)C(=O)NCC(=O)N[C@@H](CS)C(N)=O)C(C)C)[C@@H](C)O	–	–	–	–	–	Insoluble
COC[C@@H](c1ccc(C(F)(F)F)cc1)N1CCN(C2(C)CCN(C(=O)c3c(C)ncnc3C)CC2)C[C@@H]1C [VICRIVIROC]	–	0.026	0.0014	–	–	–
CC[C@H](C)[C@H](NC(=O)[C@H](CCCCN)NC(=O)[C@H](CCC(=O)O)NC(=O)[C@H](Cc1c[nH]c2ccccc12)NC(=O)[C@H](CCCCN)NC(=O)[C@H](CC(=O)O)NC(=O)[C@H](CC(C)C)NC(=O)[C@H](CCC(=O)O)NC(=O)CNC(C)=O)C(=O)N[C@@H](CCCNC(=N)N)C(=O)N[C@@H](CC(C)C)C(=O)N[C@@H](CCCNC(=N)N)C(=O)N1CCC[C@H]1C(=O)NCC(=O)NCC(=O)NCC(=O)N[C@@H](CSCC(N)=O)C(N)=O	17	1	–	> 50	–	–
